“Also recorded” adds a separate entry of the source.

The nature of data set [1]: Moisture sorption (DVS). Format: physicochemical. To be noted: for hygroscopicity (in words): DVS up to 95% RH; for XRPD of the post-DVS material: after DVS cycle. As to the method: Moisture Sorption: Moisture sorption data was collected at 25° C. using a VTI vapor sorption analyzer. A sample size of approximately 4-10 mg was used in a standard platinum pan. Hygroscopicity was evaluated from 5 to 95% RH in increments of 5% RH. Data for adsorption and desorption cycles were collected. Equilibrium criteria were set at 0.001% weight change in 10 minute with a maximum equilibration time of 180 minutes.

Data set [2] is described as follows: Solid state stability assessment under accelerated conditions. The format is physicochemical. Particulars: for XRPD after solid state physical stability assessment: 8 weeks under stress conditions; for chemical and physical stability after 8 weeks: 25° C./60% RH (open), 40° C. (closed), 60° C. (closed), 40° C./75% RH (open). On the procedure:
Solid state stability assessment of AMG 176 Form 1 was conducted at 25° C./60% RH (open), 40° C. (closed), 60° C. (closed), and 40° C./75% RH (open) accelerated conditions to determine the chemical and physical stability of AMG 176.
Solid state stability assessment of AMG 176 amorphous material and Form 1 was conducted at 25° C./60% RH (open), 40° C. (closed), 60° C. (closed), and 40° C./75% RH (open) accelerated conditions to determine the chemical and physical stability of AMG 176.

Data set [3] can be described thus: Dog PK studies, amorphous versus crystalline suspension. The format is in vivo. To be noted: AMG 176 dosed as an amorphous suspension as compared to the crystalline suspension. The text has this: AMG 176 Form 1 has acceptable pharmaceutical and physical properties, can be scaled to kilogram quantities, and can be compounded during drug product formulating as an in situ sodium salt to achieve desired drug concentrations to enable IV delivery. AMG 176 can also be converted to amorphous material to support oral dosing, if desired, depending on the dosing range. […] While improved exposures were observed by dosing the amorphous material, the exposures would likely plateau if gram level doses are need for oral delivery.

The mark [4] stands for this setting: DVS, 25° C., adsorption 5% to 95% RH.

As to `CO[C@H]1/C=C/C[C@H](C)[C@@H](C)S(=O)(=O)NC(=O)c2ccc3c(c2)N(C[C@@H]2CC[C@H]21)C[C@@]1(CCCc2cc(Cl)ccc21)CO3` [AMG 176 Form 1], in data set [1], the “hygroscopicity (in words)” value was “low hygroscopicity; also recorded: non-hygroscopic” and the “XRPD of the post-DVS material” value is listed as “no form change”. In data set [1] (setting [4]), the “water vapor uptake between 5% and 95% RH” value worked out at 0.3%. The “XRPD after solid state physical stability assessment” value in data set [2] (listed as crystalline Form 1 of AMG 176) is listed as “Form conversion was not observed”. Besides, the “chemical and physical stability after 8 weeks” value in data set [2] was “physically and chemically stable”.

In data set [3], `CO[C@H]1/C=C/C[C@H](C)[C@@H](C)S(=O)(=O)NC(=O)c2ccc3c(c2)N(C[C@@H]2CC[C@H]21)C[C@@]1(CCCc2cc(Cl)ccc21)CO3` [AMG 176, (1S,3′R,6′R,7′S,8′E,11′S,12′R)-6-chloro-7′-methoxy-11′,12′-dimethyl-3,4-dihydro-2H,15′H-spiro[naphthalene-1,22′-[20]oxa[13]thia[1,14]diazatetracyclo[14.7.2.0^3,6.O^19,24]pentacosa[8,16,18,24]tetraen]-15′-one 13′,13′-dioxide] registered an improvement of absorption of 10 ×.

In the case of `CO[C@H]1/C=C/C[C@H](C)[C@@H](C)S(=O)(=O)NC(=O)c2ccc3c(c2)N(C[C@@H]2CC[C@H]21)C[C@@]1(CCCc2cc(Cl)ccc21)CO3` [Amorphous AMG 176], the “hygroscopicity (in words)” value in data set [1] is on record as “limited hygroscopicity”. In addition, the “water vapor uptake (weight gain) between 5% and 95% RH” value in data set [1] (setting [4]) is 0.95 wt %; in data set [1] (DVS, 25° C., adsorption 5% to 95% RH, listed as amorphous form of AMG 176), “about 0.95 wt %”. For the same compound, in data set [1] (DVS, 95% relative humidity), the “weight gain at 95% RH” value came to 0.95%. In addition, in data set [1] (DVS, desorption cycle, likely loss of residual DCM and/or water), the “weight lost upon desorption” value was 1.59%. Moreover, the “XRPD of the post-DVS material” value in data set [1] and in data set [1] (listed as amorphous form of AMG 176) was “consistent with amorphous material” each time. Further, the “XRPD after solid state physical stability assessment” value in data set [2] is reported as “Crystallization not observed”. For the same compound, the “chemical and physical stability after 8 weeks” value in data set [2] was “physically and chemically stable”.

Source of the values: patent US20240140966A1, “AMORPHOUS AND CRYSTALLINE FORMS OF MCL-1 ANTAGONISTS” (AMGEN INC., priority 2022, published 2024).
